According to patent US10668032B2 (SyneuRx International (Taiwan) Corp., priority 2016, dated 2020):

How the values were obtained:
[1] = test system: MPTP/3-NP-induced C57BL/6J mice; test: Rotarod in MPTP plus 3-NP intoxicated mice (MSA-P model); type: in vivo, mouse; details: 256 mg/kg body weight/day for one week after 9 days MPTP/3-NP, vs saline
Experimental: Male C57BL/6J mice (age, 8-12 weeks) were randomly assigned to 2 groups—vehicle control and MPTP/3-NP-induced groups. MPTP and 3-NP were administered during a 9-day intoxication period. 3-NP was administered i.p. every 12 h (total dose 450 mg/kg in 9 days) and MPTP i.p. at 10 mg/kg/day (total dose 90 mg/kg in 9 days).
Rotarod motor activity was measured before and after chronic MPTP/3-NP induction, respectively. Time spent on the rod at each level of revolving speed indicated motor performance. Mice were trained at the speed accelerating from 4 to 10 rpm over 5 min before the test (−7, −5, −3 Days). During the test, all animals started at 4 rpm and accelerated from 4 to 20 rpm over 5 min with each mouse experiencing three trials per day with inter-trial interval of 10 min. The average latency time of each mouse to fall is calculated.

[2] = test system: B6CBA-Tg(HDexon1)62Gpb/3J mice; test: Survival of HDexon1 (R6/2) transgenic Huntington's disease mice; type: in vivo, mouse; details: 256 mg/kg/day i.p. from 11 weeks after birth, vs vehicle-treated HDexon1 transgenic mice
Experimental: Animals used in the examples of the present disclosure were housed in an animal room under temperature control (24-25° C.) and 12:12 light-dark cycle. Standard laboratory chow and tap water were available ad libitum. The experiments procedures were approved by the Institutional Animal Care and Use Committee and were performed in compliance with national animal welfare regulations. Transgenic mice B6CBA-Tg(HDexon1)62Gpb/3J were purchased from the Jackson Laboratory (USA).
Drug regimen was initiated 11 weeks after birth, and continued until the end of study. […] The mice of vehicle group received injections of the same volume of saline.
Date and cause of death were recorded for each mouse. Animals were closely monitored and euthanized if moribund, which was defined as the inability of mice to right themselves 30 seconds after being placed on a side, in accordance with the criteria for severe morbidity. The moribund mice were recorded as “dead”, and euthanized using carbon dioxide.

[3] = Plasma pharmacokinetics of benzoic acid after oral gavage; type: in vivo, Sprague-Dawley rats; details: rat, single oral gavage
Experimental: The plasma concentration of benzoic acid was determined by LC/MS/MS. The chromatographic separation was carried out on a ODS 5 um column (4.6×150 mm, Biosil). The mobile phase consisted of a mixture of 1% mobile phase A and 99% mobile phase B. […] The injection volume was 50 μL and the column temperature was 23° C. All solvents were HPLC grade quality. Plots of plasma concentration of benzoic acid versus time are constructed. The fundamental pharmacokinetic parameters were obtained from non-compartmental analysis (NCA) of the plasma data using WinNonlin.

primary cortical cells = test: Neurogenesis (BrdU/NeuN co-localization) in primary cortical culture after Aβ25-35; type: cell-based, rat; details: 0.5 mM, 4 days; compared with the other two drugs
Experimental: Primary cortical cultures were prepared from embryonic day 18 (E18) fetal Spragu-Dawley (SD) rat brains. Culture medium was removed from cells and replace with BrdU labeling solution and incubated at 37° C. for 4 days aligned with treatments after Aβ25-35 for 2 days. Cells were fixed in 4% PFA and washed in PBS, blocked with 2% bovine serum albumin (BSA) and 0.03% Triton X-100 in PBS, acid-washed with 2N HCl and phosphate/citric acid buffer (pH 7.4). Next, anti-BrdU primary antibody (1:250, Thermo Scientific) or anti-NeuN primary antibody (1:300, Abcam) were added. The goat anti-rat IgGAlexa Fluor-conjugated secondary antibodies (1:200; Thermo Scientific); anti-mouse IgG Alexa Fluor-conjugated secondary antibodies (1:500; Thermo Scientific) were applied to recognize the primary antibodies of the BrdU and NeuN respectively.
(§1) The coverslips were observed under a digital imaging fluorescence microscope (Olympus BX61; Japan) equipped with filter sets to detect the corresponding fluorescence signals.
The second part of mechanism study was focused on neurogenesis. The impairment of neurogenesis in the adult hippocampus has been an important evidence of the pathogenesis of Alzheimer's disease. […]

[4] = test system: GFAP positive cells in cortical culture; test: GFAP immunocytochemistry in cortical culture after Aβ25-35; type: cell-based, rat
Experimental: Cells were fixed in 4% PFA and washed in PBS, blocked with 2% bovine serum albumin (BSA) and 0.03% Triton X-100 in PBS, and then incubated with mouse monoclonal antibody against microtubule-associated protein-2 (MAP-2) (Cat. No. MAB378, 1:150, CHEMICON International, Inc., Temecula, Calif., USA); rabbit polyclonal antibody against GFAP (Cat. No. Z0334, 1:600, DakoCytomation Denmark A/S, Denmark). The goat anti-mouse IgG Alexa Fluor-conjugated secondary antibodies (1:500; Cat No. A11003, Thermo Scientific); anti-rabbit IgG Alexa Fluor-conjugated secondary antibodies (1:500; Thermo Scientific) were applied respectively to recognize the primary antibodies of the MAP-2 and GFAP.
as §1
Glial fibrillary acidic protein (GFAP) is an intermediate filament protein expressed by cells in the CNS, and is also recognized as an astrocyte maturation marker. Upregulation of GFAP, indicating gliosis, is commonly observed after CNS lesion; therefore, expression of GFAP could be useful to understand the state of neurological diseases.

SH-SY5Y cells = test: MPTP toxicity in SH-SY5Y cells, MTT assay; type: cell-based, human
Experimental: SH-SY5Y, the human neuroblastoma cell line, was incubated with MPTP (750 μM) for 24 hrs.

[5] = test system: primary cortical neuronal culture; test: Detection of cellular reactive oxygen species (CellROX) after 3-NP in primary cortical culture; type: cell-based, rat
Experimental: Reactive oxygen species (ROS) are detected on primary cortical neuronal culture by CellROX Oxidative Reagents (catalog number 10444, Life Technologies Corp. USA). […] The cells were then exposed to 2.5 mM 3-NP for 24 hours. Subsequently, […] CellROX Reagent was added, and then incubated for […]. CellROX Green Reagent is a DNA dye, and upon oxidation, it binds to DNA; thus, its signal is localized in the nucleus and mitochondria. ROS were quantified by fluorescence intensity. The samples were observed under a laser scanning confocal microscope Zeiss LSM700 (Zeiss, Germany) equipped with filter sets to detect fluorescent signal.

[6] = NaBen 287.9 mg/kg + Li2CO3 74.2 mg/kg or LiBen 255.3 mg/kg

O=C([O-])c1ccccc1.[Li+] [lithium benzoate]
retention time on rotarod [1]: significantly improved
proportion of mice surviving over time [2]: improved
AUC Extr of benzoic acid [3, 6]: 2.63%
AUCInf of benzoic acid [3, 6]: 62,874 hr * ng/mL
AUClast of benzoic acid [3, 6]: 62,059 hr * ng/mL
Cmax of benzoic acid [3, 6]: 109,321 ng/mL
MRT of benzoic acid [3, 6]: 45 min
Tmax of benzoic acid ([3]; NaBen 287.9 mg/kg + Li2CO3 74.2 mg/kg or LiBen 255.3 mg/kg (same molarity)): 11.4 min
neurogenesis (BrdU(+)/NeuN(+) cells) after Aβ25-35 exposure (primary cortical cells): unsurpassed performance of neurogenesis
reduction of GFAP positive cells compared with LiCl ([4]; LiBen 0.5 mM vs LiCl 1 mM): better effect than LiCl
number of GFAP positive cells after Aβ25-35 exposure ([4]; post-treatment 0.5 mM): significantly reduced
cell survival improvement compared with sodium benzoate and lithium chloride (SH-SY5Y cells; 1 mM each, MPTP 750 μM): better performance of cell survival improvement than the other two groups
dose at which the protective effect was most obvious (SH-SY5Y cells; 0.3, 1, 3 mM tested, MPTP): 1 mM
ROS reduction effect compared with sodium benzoate and lithium chloride ([5]; 0.5 mM each): much more significant
ROS production induced by 3-NP ([5]; 0.5 mM, incubated 24 hours before 3-NP): back to the basal level
ROS production induced by 3-NP ([5]; lithium benzoate 0.5, 1 or 3 mM 24 h, then 2.5 mM 3-NP 24 h): significantly reduced
